Source: a melting point compilation (Tetko et al.; mined from patent text by program, amines drawn as free bases though some values may be those of a salt)

Row | SMILES | melting point [°C]
1 | O=C(NCCc1ccccc1Cl)c1c(Cl)ccc2nc(N3CC[C@H](NCCO)C3)ccc12 | 170 to 172
2 | O=[N+]([O-])c1cc2n(n1)CCOC2 | 110 to 112
3 | O=C(OC(=O)c1cccnc1)c1cccnc1 | 162 to 164
4 | CCc1cc(C(N)=O)nn1CC | 129 to 131
5 | CCOC(=O)c1cc2c(Cl)ccc(N(C)S(=O)(=O)c3cccs3)c2n1COC | 137 to 138
6 | Cc1cn(C)c2c1N(C(=O)CN(C)C)c1ccccc1NC2=O | 219 to 220
7 | CC[C@H]1[C@@H](O)[C@H](C)C(=O)N1c1ccc(C#N)c(OC)c1 | 78 to 81
8 | CCC(CC)C(NS(=O)(=O)c1ccc(Cl)s1)c1ccnn1S(=O)(=O)c1ccc(C)cc1 (centres undefined) | 146 to 148
9 | CNc1ccc(Cl)cc1-c1cc2ccccc2[nH]1 | 123 to 126
10 | O=C(O)c1cn([C@@H]2C[C@@H]2F)c2c(Cl)c(N3CC4=C(CNC4)C3)c(F)cc2c1=O | 221 to 223
11 | COc1cc(C=O)cc2c(N(C)C)cc(C)nc12 | 127 to 129
12 | Cc1nn(C(C)(C)C)c(N)c1C#N | 156 to 157
13 | Cc1[nH]c(-c2ccccc2)c(N)c1C(=O)C(C)C | 180 to 183
14 | Cc1ccc2c(-c3cccc(O)c3)nc(=O)n(C(C)C)c2c1 | 270 to 272
15 | N#Cc1cc(N2CCCCC2)ccc1N | 87 to 88
16 | O[C@@H]1CNCC[C@H]1Oc1ccc(F)cc1 (relative stereo) | 121 to 123
17 | CCCCNC(=O)[C@@H](C[C@H](O)[C@H](CC1CCCCC1)NC(=O)[C@H](Cc1cscn1)NC(=O)OC(C)(C)C)C(C)C | 201 to 203
18 | Cc1noc(NS(=O)(=O)c2ccccc2-c2ccc(-c3ncco3)cc2CN(C)C(=O)c2ccc(F)cc2)c1C | 125 to 135
19 | Nc1nc(-c2cccnc2)c(Cl)s1 | 202
20 | NC(=O)c1ncn(C2OC(CO)C(O)C2O)c1C(N)=O (centres undefined) | 224 to 226

Row | SMILES | melting point [°C]
21 | COC(=O)CCc1ncc(O)c(C(=O)OC)c1C(=O)OC | 66 to 67
22 | Cc1nn(-c2ccc(Cl)nn2)c(C)c1Br | 143 to 145
23 | N#CC(Cl)Cc1ccccc1C(=O)O (centres undefined) | 116 to 117
24 | CCOC(=O)c1nn(-c2ccccc2C)c(=O)c2c(N)scc12 | 209 to 210
25 | Cn1ncc2c(c1=O)SCCNC2C(=O)c1ccc([N+](=O)[O-])cc1 (centres undefined) | 230 to 232
26 | Clc1ccc(Cn2cc(C=NNc3nc(-c4ccc(Cl)cc4Cl)cs3)c3ccccc32)c(Cl)c1 | 185
27 | CC(C)(C)C(=O)c1ccc(C(=O)N(C(=O)c2ccc(C(=O)C(C)(C)C)cc2)C(=O)c2ccccc2C(=O)C(C)(C)C)cc1 | 185 to 188
28 | O=C(O)c1ccc([N+](=O)[O-])cc1C(F)(F)F | 128 to 129
29 | CC(C)n1nc(-c2cc(C(=O)NCCN3CCOCC3)cnc2-c2ccccc2)ccc1=O | 162 to 163
30 | C=C(C)CNc1cccc(-c2ccnc3c(C(=O)c4cccs4)cnn23)c1 | 104 to 106
31 | O=C(CCCOc1ccc(OCc2ccccc2)cc1)C(F)(F)F | 51 to 53
32 | CCC(=O)NCCc1cc(-c2cccc(C(=O)OC)c2)cc2ccc(OC)cc12 | 113 to 115
33 | COCc1nnc(-c2cccnc2)n1-c1c(C)c(Cl)cc2[nH]c(=O)c(=O)[nH]c12 | > 300
34 | Cc1c(O)c(C(C)(C)C)c(Cc2cc(C(C)(C)C)c(O)c(C(C)(C)C)c2)c(C)c1Cc1cc(C(C)(C)C)c(O)c(C(C)(C)C)c1 | 140
35 | FC(F)(F)c1ccc2[nH]c(-c3csc(Cc4c(Cl)cccc4Cl)n3)nc2c1 | 187 to 189
36 | CCc1c(Sc2cc(C)cc(C)c2)n(CC2=CCCC2CO)c(=O)[nH]c1=O (centres undefined) | 59 to 60
37 | CNc1cc(S(=O)(=O)c2ccc(N)cc2)cc(Br)n1 | 171 to 173
38 | CC(C)(C)CC(=Cc1ccc(Cl)cc1)Cn1cncn1 | 81 to 84
39 | COc1ccc(-c2nn(CC3CC3)c(=O)c(C(N)=O)c2-c2ccc(OC)cc2)cc1 | 174 to 175
40 | C#Cc1ccc2nc(Cl)c(S(=O)(=O)N=CN(CC(C)C)CC(C)C)n2n1 | 166 to 168

Row | SMILES | melting point [°C]
41 | COCCOc1ccc(CCC(=O)NS(N)(=O)=O)c(Oc2ncc(C(F)(F)F)cc2Cl)c1 | 158 to 159
42 | Cc1cccc(C(N)=O)c1Nc1nc(Nc2ccc3c(c2)C(C)(C)CCC(=O)N3)ncc1Cl | 220 to 222
43 | NC(=O)c1ccccc1NC(=S)NC(=O)c1ccccc1 | 190 to 192
44 | Nc1ccccc1-c1ccc(Br)cc1N | 61 to 62
45 | CCOC(=O)c1cnc2ccc3nc(Cl)sc3c2c1Cl | 143 to 146
46 | COC(=O)C=Cc1ccccc1C#N | 92 to 93
47 | Cc1ccc(S(=O)O)cc1 | 55 to 57
48 | O=C(O)COc1cccc(-n2nc(-c3ccc(F)cc3)c3cccnc32)c1 | 225 to 226
49 | CN(C)C(=O)Cn1c(-c2cccc(Br)c2)nc2cccnc21 | 144 to 146
50 | CC1Oc2cc3nc(S)[nH]c3cc2O1 | > 300
51 | O=C(O)C(=O)c1ccc(OCC(=O)N2CCC(c3ccccc3)CC2)cc1 | 209 to 210
52 | COc1ccc(S(=O)(=O)C2(C(=O)NO)CCN(C)CC2)cc1 | 89
53 | Cc1nc2c(OCc3c(Cl)ccc(N(C)C(=O)CO)c3Cl)cccn2c1Br | 217 to 218
54 | C=CCOc1cccc([N+](=O)[O-])c1OC | 93 to 94
55 | CNC(=O)c1ccc(-c2cccc3nc(Nc4cc(OC)c(OC)c(OC)c4)oc23)cc1 | 258 to 259
56 | CCS(=O)(=O)Nc1cc(Cc2c[nH]cn2)ccc1F | 122 to 123
57 | Cc1cc(CN2N=C(C(F)(F)C(F)(F)F)NC2(O)C(C)(C)C)ccc1[N+](=O)[O-] (centres undefined) | 125 to 128
58 | CCn1cc(C(=O)O)c(=O)c2cc(F)c(N3CCN(C(=O)OC(OC(=O)C(C)c4ccc(CC(C)C)cc4)C(=O)OC(C)C)CC3)cc21 (centres undefined) | 88 to 96.5

Next, values leading:

Row | melting point [°C] | SMILES
59 | 184 | Cc1nc2scc(C)n2c(=O)c1CCN1CCC(=C(c2ccc(F)cc2)c2ccc(F)cc2)CC1
60 | 101 to 104 | CCOC(=O)Cc1cc(C)c(C(=O)c2ccc(Cl)cc2)n1C
61 | 81 to 83 | CCCCC(=O)Nc1ccc(N)cc1
62 | 210 | COC(C)=CC(=O)Nc1cccc(OC(=O)NC(C)C)c1
63 | 91 to 93 | CCCCCCNC(=O)OC1CCN(C(=O)Oc2ccc(Oc3ccc(OC)cc3)cc2)CC1
64 | 36 to 38 | CC1(C)CCC2(Cc3ccc(Cl)cc3)OC12CO (centres undefined)
65 | 246 to 247 | O=c1ccc(S(=O)(=O)c2cc3cc(Cl)ccc3o2)n[nH]1
66 | 214 to 217 | COc1cc(N)c(Cl)cc1C(=O)NCC1CCN(CCCCCNC(=O)Nc2ccccc2)CC1
67 | 225 to 229 | CC(C)Oc1ccc(C=C2CCn3c2nc2cc(NC(=O)C(=O)O)ccc2c3=O)cc1
68 | 218 to 223 | COc1cc(C(=O)O)ccc1Cc1cn(C)c2ccc(C(=O)NC[C@H](C)CC(F)(F)F)cc12
69 | 108 to 110 | COC(=O)c1sc(C(C)C)cc1NC(=O)Nc1ccccc1
70 | 50 to 53 | COCc1ccc(CCCOc2c(C)cc(-c3noc(C(F)(F)F)n3)cc2C)cn1
71 | 217 to 222 | CC(C)Oc1ccc(-n2c(-c3ccc(C(=O)O)cc3)c(C(=O)O)c3cc(Oc4ccc(Cl)cc4)ccc32)cc1
72 | 242 to 246 | O=C1NC(=O)C2c3cccc4cccc(c34)C12 (centres undefined)
73 | 162 to 163 | Clc1nc2cccccc-2n1
74 | 168 to 170 | CC(=O)NCC1CN(c2ccc(N3CCN(c4nc(C)ns4)CC3)c(F)c2)C(=O)O1 (centres undefined)
75 | 250 to 253 | COc1ccccc1-c1ccc(C(=O)N2Cc3cccn3Cc3ccccc32)cc1
76 | 183 to 185 | CC(=O)CCC(C)C1CC=C2C3=C(CCC21C)C1(C)CCC(O)C(C)(C)C1CC3 (centres undefined)
77 | 70 to 72 | CC(C)c1ccc([N+](=O)[O-])c(C(C)C)c1NC(=O)CN1CCN(CCSc2nc3cccc([N+](=O)[O-])c3o2)CC1
78 | 117 to 119 | NS(=O)(=O)c1cc(C(=O)CCCCCl)cc2c1CCC2
79 | 198 to 214 | Cn1ncc(C(=O)N2CCOCC2)c1C(=O)Nc1ccn2nc(Br)nc2c1

Row | melting point [°C] | SMILES
80 | 83.7 to 85.9 | CC(=O)NC[C@H]1CN(c2ccc(-n3nccc3-c3cccnc3)c(F)c2)C(=O)O1
81 | 87 to 88 | COC(=O)C(CCCCNC(=O)c1ccc(NC(=O)OCc2ccccc2)cc1)n1c2ccccc2c2ccccc21 (centres undefined)
82 | 183 to 185 | CCOC(=O)C1=CC(C2CC2)c2c(ccc(-c3cc4c(s3)C(O)CCC4)c2OC)C1=O (centres undefined)
83 | 116 to 118 | N#Cc1cn(-c2c(Cl)cc(C(F)(F)F)cc2Cl)nc1C(F)(F)F
84 | 143 | CSCCC(NC(=O)Nc1cccc(C)c1)C(=O)O (racemic)
85 | 183 to 185 | Nc1sc2c(c1C(=O)c1ccc3ccccc3c1)CCN(Cc1ccccc1F)C2
86 | 91 | COc1cccc(C(=O)O)c1CCc1cccc(Cl)c1
87 | 90 to 92 | CCCCCCNC(=O)OCCCNC(=O)OC1CCN(C(=O)Oc2ccc(Oc3ccccc3)cc2)CC1
88 | 267 to 269 | CC(=O)c1c(-c2ccc(Cl)cc2)c(-c2ccc(Cl)cc2)n[nH]c1=O
89 | 75 to 76 | CNc1nc(OC(C)C)ccc1[N+](=O)[O-]
90 | 82 to 84 | CC(=O)Oc1c(C)c2c(c(C)c1OC(C)=O)SC(C)O2 (centres undefined)
91 | 179 to 181 | O=C(O)CNC(=O)NC(CSC(=O)Nc1ccccc1)Cc1ccccc1 (centres undefined)
92 | 89 | C[C@H]1CC(=O)N1c1ccc(C(=O)OCc2ccccc2)cc1
93 | 92 to 93 | CCOC(=O)c1sc(C)nc1OCCCc1cc(OC(C)C)nn1Cc1ccc(Cl)cc1Cl
94 | 222 to 224 | Cc1cc(NCCO)c2[nH]nc(-c3ccc(Cl)cc3)c2n1
95 | 137 to 139 | NC(CCCSc1nccc(NC(N)=NCC(F)(F)F)n1)=NO
96 | 120 | COC(=O)c1ccc(OC)c(NC(=N)c2ccc(F)cc2F)c1
97 | 124 to 127 | COC(CN(C)C(=O)Nc1nnc(C(C)Oc2ccc(Cl)c(Cl)c2)s1)OC (centres undefined)
98 | 111 to 112 | COc1cccc2c1CCC21OC(=O)c2ccccc21 (centres undefined)
99 | 208 | CN1CC[C@@H](c2c(O)cc(O)c3c(=O)cc(-c4ccc(N)cc4Br)oc23)[C@@H]1CO
